In US20130316027A1, “ANTIMICROBIAL COMPOSITION” (priority 2011, published 2013):

Legend:
FCV (Feline Calcivirus) = assay: Virucidal suspension test (EN14476), viral kill of FCV; format: cell-based, Feline Calicivirus; conditions: contact time five minutes, clean conditions (bovine albumin)
Method: (§1) The virucidal activity of various test solutions were measured using the following protocol.
(§2) A standard EST protocol (EN14476) was followed for the evaluation of activity of antiviral actives in suspension test. Antiviral activity of actives was tested in clean conditions.
(§3) Clean conditions: To create clean conditions, 0.3 g of bovine albumin fraction V was dissolved in 100 ml of water and sterilised by passing the solution through a 0.2 μm filter).
(§4) Preparation of test mixture: To prepare the test mixture, 1 ml of interfering substance (Bovine Albumin) was pipetted into a suitable container, followed by addition of 1 ml of test virus suspension. To this, 8 ml of product test solution was added. At the end of chosen contact time period, 100 μl of the test mixture was added to resin column. Centrifugation of microspin column (735×g, 2 min). The elutant was diluted up to 10^−6 in ice cold virus growth medium. The infectivity of each dilution was measured by TCID50 using the Spaerman-Karber formula. Titration of Virus: Monolayers of cells were grown in 96-well tissue-culture plates (Costar) at 37° C. in an atmosphere of 95% air and 5% carbon dioxide (CO2). Tenfold dilutions of virus suspension were prepared in virus growth medium. One hundred microlitres of each dilution was added to five replicate wells in 96-well tissue-culture plates. Cell controls were included on each plate. Plates were incubated at 37° C. in an atmosphere of 95% air/5% CO2. Cultures were observed daily for viral cytopathic effect for a period of seven days after which they were discarded. The virus titre was calculated by TCID50 (Tissue culture infective dose) using the Spaerman-Karber formula.
(§5) Negative logarithm of the 50% end point=Negative logarithm of the highest virus concentration used−[(Sum of % affected at each dilution/100−0.5)×([…])]
Various compositions as shown in Table-1 were prepared and their virucidal activity was measured using the procedure given earlier. […]
Various compositions as shown in Table-4 were prepared and their virucidal activity was measured using the procedure given earlier. […]

[1] = system: RSV (Respiratory syncitial virus); assay: Virucidal suspension test (EN14476), virus kill of RSV; format: cell-based; conditions: contact time five minutes, clean conditions (bovine albumin)
Method: as §1, §2, §3, §4, §5
Various compositions as shown in Table-2 were prepared and their virucidal activity was measured using the procedure given earlier. […]
Various compositions as shown in Table-5 were prepared and their virucidal activity was measured using the procedure given earlier. […]

MS2 Phage = assay: Virucidal suspension test (EN14476), virus kill of MS-2 bacteriophage; format: cell-based; conditions: contact time five minutes, clean conditions (bovine albumin), MS2 Phage control 6.36, Table 3
Method: as §1, §2, §3
Preparation of test mixture: To prepare the test mixture, 1 ml of interfering substance (Bovine Albumin) was pipetted into a suitable container, followed by addition of 1 ml of test virus suspension. To this, 8 ml of product test solution was added. At the end of chosen contact time period, 100 μl of the test mixture was added to resin column. Centrifugation of microspin column (735×g, 2 min). The elutant was diluted up to 10^−6 in ice cold virus growth medium. The infectivity of each dilution was measured by TCID50 using the Spaerman-Karber formula. Titration of Virus: Monolayers of cells were grown in 96-well tissue-culture plates (Costar) at 37° C. in an atmosphere of 95% air and 5% carbon dioxide (CO2). […] The virus titre was calculated by TCID50 (Tissue culture infective dose) using the Spaerman-Karber formula. […]
Various compositions as shown in Table-3 were prepared and their virucidal activity was measured using the procedure given earlier. […]

Molecule | amount of virus remaining, Log TCID50/0.1 ml (FCV (Feline Calcivirus); FCV Control 4.50, Table 1) [Log TCID50/0.1 ml] | amount of virus remaining, Log TCID50/0.1 ml ([1]; RSV Control 5.00, Table 2) [Log TCID50/0.1 ml] | amount of virus remaining, Log TCID50/0.1 ml (FCV (Feline Calcivirus); FCV Control 5.50, Table 4) [Log TCID50/0.1 ml] | amount of virus remaining, Log TCID50/0.1 ml (MS2 Phage) [Log TCID50/0.1 ml] | amount of virus remaining, Log TCID50/0.1 ml ([1]; RSV Control 4.70, Table 5) [Log TCID50/0.1 ml]
COc1cc(/C=C/C(=O)CC(=O)/C=C/c2ccc(O)c(OC)c2)ccc1O [Example 3, Curcumin] | 3.40 | 4.65 | – | – | –
benzalkonium chloride [Example 2] | 3.25 | 2.50 | – | – | –
benzalkonium chloride [Example 10] | – | – | 3.10 | 1.94 | 3.90
